In patent US20250255977A1, “EPSILON-POLY-L-LYSINE-BASED DRUG CONJUGATE, INTERMEDIATE THEREOF, AND APPLICATION THEREOF” (SHANGHAI BEST-LINK BIOSCIENCE, LLC, priority 2021, published 2025):
Read-outs that look alike come from different tables or passages of the source.

Experiments:
HepG2 tumors = assay: In vivo efficacy in HepG2 xenograft CDX mouse model; design: species or system BALB/C nude mice; details: Day 33
Method: Biological Assessment Example F: […] The tumor volume was calculated as: […] The evaluation criteria are as follows: […]

[1] = BALB/C nude, mouse, in vivo, iv, 10 mg/kg
Method: Mice were killed at set time points. Plasma was taken after blood centrifugation. Tumor tissues were isolated, temporarily stored in dry ice and then transferred to −80° C. freezer for later use.
Tumor tissues were thawed, weighed and then added a certain amount of 50/50 methanol and water. The mixture was homogenized on the handheld homogenizer with ice bath, centrifuged at 4° C. 6000×g for 10 min, and the supernatant was collected.
30 μL of plasma or homogenized tumor supernatant were taken and added 200 μL of acetonitrile with internal standard (tolbutamide, 50 ng/mL). The mixture was vortexed for 5 min and centrifuged at 6000×g for 10 min. 75 μL of the supernatant was transferred to a 96-well plate pre-added with 75 μL of water and shaked at 500 rpm for 5 min. 2 μL of sample was injected for LC MS/MS analysis.
Column: ACQUITY UPLC BEH C18 (2.1×50 mm, 1.7 μm)
Phase A: 0.1% formic acid/water, Phase B: 0.1% formic acid/acetonitrile

[2] = test system: H69 small cell lung cancer; assay: Efficacy on subcutaneous transplanted 1200 mm^3 H69 small cell lung cancer model; format: in vivo, BALB/C nude mice; details: topotecan MTD 2 mg/kg (free base) once a day for five days; 1200 mm^3 tumors
From the text: Biological Assessment Example I: Comparison of Efficacy of 101B00G and Topotecan on Subcutaneous Transplanted 1200 mm^3 H69 Small Cell Lung Cancer Model

Row | Structure (SMILES) | TGI (%) / tumor inhibition rate (HepG2 tumors) [%] | Plasma concentration of released drug, average value ([1]; 0.083 h) | Plasma concentration of released drug, average value ([1]; 0.5 h) | Plasma concentration of released drug, average value ([1]; 1 h) | Plasma concentration of released drug, average value ([1]; 3 h) | Plasma concentration of released drug, average value ([1]; 8 h) | Increase of tumor volume on Day 22 compared with the initial value [2] [%]
1 | CCc1c2c(nc3ccc(OC(=O)N4CCC(N5CCCCC5)CC4)cc13)-c1cc3c(c(=O)n1C2)COC(=O)[C@]3(O)CC [irinotecan] | −49 | 865 | 385 | 407 | 172.6 | 27.7 | –
2 | CC[C@@]1(O)C(=O)OCc2c1cc1n(c2=O)Cc2cc3c(CN(C)C)c(O)ccc3nc2-1 [topotecan] | – | – | – | – | – | – | 22
